Data as given in patent US20240279202A1 (NURIX THERAPEUTICS, INC., priority 2021, published 2024).

Molecular target: T1, ITK (Homo sapiens, UniProt Q08881)
T1 sequence (Q08881 1-620): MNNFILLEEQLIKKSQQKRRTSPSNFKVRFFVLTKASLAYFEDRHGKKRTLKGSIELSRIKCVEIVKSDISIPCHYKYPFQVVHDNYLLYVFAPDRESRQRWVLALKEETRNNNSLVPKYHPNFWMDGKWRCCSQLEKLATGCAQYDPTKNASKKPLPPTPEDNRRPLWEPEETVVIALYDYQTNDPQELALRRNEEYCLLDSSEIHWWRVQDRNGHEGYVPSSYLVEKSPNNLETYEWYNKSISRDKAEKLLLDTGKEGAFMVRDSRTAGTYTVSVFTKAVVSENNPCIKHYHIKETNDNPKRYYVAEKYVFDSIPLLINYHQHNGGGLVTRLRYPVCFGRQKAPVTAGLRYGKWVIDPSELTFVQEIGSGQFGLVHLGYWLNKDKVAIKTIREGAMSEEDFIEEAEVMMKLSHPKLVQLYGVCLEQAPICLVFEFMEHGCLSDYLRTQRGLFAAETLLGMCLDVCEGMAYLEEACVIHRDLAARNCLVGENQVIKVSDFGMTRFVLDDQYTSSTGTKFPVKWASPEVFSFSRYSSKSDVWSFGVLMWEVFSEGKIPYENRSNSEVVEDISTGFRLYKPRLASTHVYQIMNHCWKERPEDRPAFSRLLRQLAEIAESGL
Assay: ITK degradation MSD (Meso Scale Discovery) assay
Assay type: cell-based
Parameters: either human Jurkat (Clone E6-1 ATCC TIB-152) or Motl4 (ATCC CRL-1552), were plated; endogenous in cells; host or cells: Jurkat clone E6-1 (ATCC TIB-152) or Molt4 (ATCC CRL-1552)
Settings: Jurkat or Molt4 cells, 4 or 6 hrs
Protocol: ITK Degradation MSD (Meso Scale Discovery) Assay Compound dilution series (7-point, 5 fold dilutions in DMSO, rows B-H with replicate in Column 1⁄2, 3⁄4, 5⁄6, 7,8, at 2000× the final required concentrations were prepared in 96 well plates (Falcon, cat. no. 353077). Row A, Column 1-8 were control DMSO. The 2000× solutions ranged from 2 mM to 128 nM (final assay concentration range 1 μM to […]). The 2000× solutions were added to cells in […], for a final DMSO concentration of 0.5% and final assay compound concentration of 1×. For the cells, either human Jurkat (Clone E6-1 ATCC TIB-152) or Motl4 (ATCC CRL-1552), were plated at 1×10^6 cells/mL, 100 μL/well ([…]) in complete RPMI (10% FBS, 1% L-glutamine). Cells were incubated for 4 or 6 hrs at 32° C./6% CO2. Following incubation, plates were centrifuged at 1200 rpm for 5 min. supernatant was removed and 50 μL of cell lysis buffer ((MSD Tris lysis buffer (R60TX), Complete Mini EDTA-free protease inhibitor (Sigma 11836170001), Protease Inhibitor Cocktail (Sigma, P2714), Phosphatase Inhibitor Cocktail 2 and 3 (Sigma, P5726 and P0044), and Benzonase (Sigma, E1014)) was added to each well. Plates were sealed and shook at 4° C. for 30 min. Plates were centrifuged and 45 μL was removed for plate assays. Assay plate preparation: Meso Scale Discovery (MSD) multi-array sm spot 96 well plates (Goat anti-Rabbit L^45-RA), were blocked with 3% BSA blocking buffer (3% Bovine Serum Albumin (Sigma A3059)+TBS 0.2% Tween-20) for 1 hr with gentle rocking at room temperature. Plates were then washed with 200 μL of 1× TBST (TBS 0.2% Tween-20) 3 times. After last wash, liquid was removed and 50 μL per well of capture antibody (abcam ITK Y402-ab32507) was added to plates at a 1:1000 dilution in blocking buffer (above). Plates were sealed and rocked at room temperature for 2 hrs. Plates were then washed 3 times with 200 μL of 1× TBST. After last wash, liquid was removed and 45 μL of cell lysate (from above) was added to each plate. Plates were sealed and rocked overnight at 4° C. Next day, cell lysates were removed, and assay plates were washed 3 times with 200 μL of 1× TBST. After last wash, liquid was removed and detection antibody (CST ITK (2F12) #2380) was added at 50 μL per well at a dilution of 1:1000 in blocking buffer. Plates were sealed and rocked at room temperature for 2 hrs. Plates were washed 3 times with 200 uL of 1× TBST. After last wash, liquid was removed, MSD Mouse anti-Rabbit sulfo tag (R32AC-1) was diluted to 1:1000 in blocking buffer. 50 μL was added to each well on the plate. Plates were sealed and incubated at room temperature for 1 hr. Plates were washed 3 times with 200 μL of 1× TBST. After last wash, liquid was removed and 150 μL of 1× MSD Read Buffer T ([…]) was then added to each well for ECL read out. For reading ECL signal, plate is read on a Meso Scale Discovery (MSD) MESO Sector S 600 plate reader. Percent ITK in then calculated as described below. Percent ITK remaining per sample was calculated as follows: [formula] Using Graphpad Prism, % ITK remaining values were plotted as a function of compound concentration. To determine DC50 and Dmax values, resulting curves were fit to the Prism curve-fitting equation “log(inhibitor) vs response-Variable slope (four parameters)” (reported best fit value IC50 used as DC50).

| DC50 | Dmax | Structure (SMILES) |
| --- | --- | --- |
| 1 nM | 86% | C[C@@H](C(=O)N(C)c1ccc2cc(-c3n[nH]c4c3CCC(C)(C)C4)[nH]c2c1)N1CCN(C(=O)C2CN(C3CCN(c4ccc5c(c4)C(=O)N(C4CCC(=O)NC4=O)C5=O)CC3)C2)CC1 (stereo partly drawn) [Compound 34, (2S)—N-(2-(6,6-dimethyl-4,5,6,7-tetrahydro-1H-indazol-3-yl)-1H-indol-6-yl)-2-(4-(1-(1-(2-(2,6-dioxopiperidin-3-yl)-1,3-dioxoisoindolin-5-yl)piperidin-4-yl)azetidine-3-carbonyl)piperazin-1-yl)-N-methylpropanamide] |
| 1.6 nM | 87% | C[C@@H](C(=O)N(C)c1ccc2cc(-c3n[nH]c4c3CCC(C)(C)C4)[nH]c2c1)N1CCN(C[C@H]2CCN(c3ccc4c(c3)C(=O)N(C3CCC(=O)NC3=O)C4=O)C2)CC1 (stereo partly drawn) [Compound 33, (2S)—N-(2-(6,6-dimethyl-4,5,6,7-tetrahydro-1H-indazol-3-yl)-1H-indol-6-yl)-2-(4-(((3R)-1-(2-(2,6-dioxopiperidin-3-yl)-1,3-dioxoisoindolin-5-yl)pyrrolidin-3-yl)methyl)piperazin-1-yl)-N-methylpropanamide] |
| 10 nM | 83% | C[C@@H](C(=O)N(C)c1ccc2cc(-c3n[nH]c4c3CCC(C)(C)C4)[nH]c2c1)N1CCN(CC2CCN(c3ccc(C(=O)NC4CCC(=O)NC4=O)nc3)CC2)CC1 (stereo partly drawn) [Compound 7, 5-(4-((4-((S)-1-((2-(6,6-dimethyl-4,5,6,7-tetrahydro-1H-indazol-3-yl)-1H-indol-6-yl)(methyl)amino)-1-oxopropan-2-yl)piperazin-1-yl)methyl)piperidin-1-yl)-N-(2,6-dioxopiperidin-3-yl)picolinamide] |
| 8 nM | 83% | CN(C(=O)C1CN(C2CCN(c3ccc4c(c3)C(=O)N(C3CCC(=O)NC3=O)C4=O)CC2)C1)c1ccc2cc(-c3n[nH]c4c3CCC(C)(C)C4)[nH]c2c1 (centres unmarked) [Compound 35, N-(2-(6,6-dimethyl-4,5,6,7-tetrahydro-1H-indazol-3-yl)-1H-indol-6-yl)-1-(1-(2-(2,6-dioxopiperidin-3-yl)-1,3-dioxoisoindolin-5-yl)piperidin-4-yl)-N-methylazetidine-3-carboxamide] |
| 1.1 nM | 84% | CN(C(=O)CCN1CCN(c2ccc3c(c2)C(=O)N(C2CCC(=O)NC2=O)C3=O)CC1)c1ccc2cc(-c3n[nH]c4c3CCC(C)(C)C4)[nH]c2c1 (centres unmarked) [Compound 2, N-(2-(6,6-dimethyl-4,5,6,7-tetrahydro-1H-indazol-3-yl)-1H-indol-6-yl)-3-(4-(2-(2,6-dioxopiperidin-3-yl)-1,3-dioxoisoindolin-5-yl)piperazin-1-yl)-N-methylpropanamide] |
| 7 nM | 87% | CN(C(=O)CCC1CCN(c2ccc3c(c2)C(=O)N(C2CCC(=O)NC2=O)C3=O)C1)c1ccc2cc(-c3n[nH]c4c3CCC(C)(C)C4)[nH]c2c1 (centres unmarked) [Compound 1, N-(2-(6,6-dimethyl-4,5,6,7-tetrahydro-1H-indazol-3-yl)-1H-indol-6-yl)-3-(1-(2-(2,6-dioxopiperidin-3-yl)-1,3-dioxoisoindolin-5-yl)pyrrolidin-3-yl)-N-methylpropanamide] |
| 0.0041 nM | 81% | C[C@@H](C(=O)N(C)c1ccc2cc(-c3n[nH]c4c3CCC(C)(C)C4)[nH]c2c1)N1CCN(CC2CCN(c3ccc4c(c3)n(C)c(=O)n4C3CCC(=O)NC3=O)CC2)CC1 (stereo partly drawn) [Compound 6, (2S)—N-(2-(6,6-dimethyl-4,5,6,7-tetrahydro-1H-indazol-3-yl)-1H-indol-6-yl)-2-(4-((1-(1-(2,6-dioxopiperidin-3-yl)-3-methyl-2-oxo-2,3-dihydro-1H-benzo[d]imidazol-5-yl)piperidin-4-yl)methyl)piperazin-1-yl)-N-methylpropanamide] |
